According to patent US7629447B2, “Dideoxynucleoside derivatives” (Wako Pure Chemical Industries, Ltd., priority 2006, dated 2009):
[5NF] = 5'-amino-2'-fluoro-2',5'-dideoxyuridine unit, linked through its 5'-amino group; d = 2'-deoxy (DNA)

How the values were obtained:
[1] = tested on: complementary DNA oligonucleotide (SEQ ID NO:7 or SEQ ID NO:8); assay: Thermal stability test, measurement of Tm (DNA/DNA match duplex); format: binding; conditions: for Tm of the duplex DNA/DNA compared with that of T-1 (control) and T-2 (control), in words: versus oligonucleotides of only naturally occurring nucleosides; for Tm of the duplex DNA/DNA compared with that of T-1 (control) and T-2 (control), in words / Tm / ΔTm: duplex DNA/DNA; for Tm: 3 μM each oligonucleotide, 10 mM sodium phosphate buffer, 100 mM sodium chloride, pH 7.0, 20 to 90° C. at 0.5° C. per minute, absorbance at 260 nm; for ΔTm: difference from the matching control (T-1 or T-2)
Description: Using commercially available dT-CE phosphoramidite and dA-CE phosphoramidite (both of them were produced by Glen research Corp.) as materials, also using 3′-dT-CPG (1 μmol) packed in a column (produced by Glen research Corp.) as a starting material, oligonucleotides were synthesized according to the same method as in Example 2, in order to obtain oligonucleotides which were each complementary to UNF-1 and UNF-2 obtained in Example 2, respectively. The base sequences of oligonucleotides complementary to UNF-1 (SEQ ID NO:7) and complementary to UNF-2 (SEQ ID NO:8) are shown in Table 2 below.
Using UNF-1 and UNF-2, which were synthesized in Example 2, and complementary oligonucleotides thereto shown in Table 2 as materials, duplexes DNA/DNA were prepared according to the conventional method (R. Kierzek et al., Biochemistry, 1986, vol. 25, pp. 7840-7846).
Using the obtained duplex DNA/DNA, thermal stability test was carried out according to the conventional method.
(§1) That is, using a UV-2450 SPECTROPHOTOMETER equipped with a temperature-variable device (produced by Shimadzu Corp.), the oligonucleotides were placed in 8 consecutive 10 mm cells under the nitrogen atmosphere, and 10 mM of sodium phosphate buffer and 100 mM of sodium chloride (pH 7.0) were added thereto so that the concentration of each oligonucleotide became 3 μM, then the temperature was increased from 20° C. to 90° C. with a climbing rate of 0.5° C. per minute, and absorbance at 260 nm were measured.
(§2) A duplex DNA/DNA formed between TN-1 synthesized in Comparative Example 2 and a complementary oligonucleotide thereto represented by SEQ ID NO:7, and a duplex formed DNA/DNA between TN-2 synthesized in Comparative Example 2 and a complementary oligonucleotide thereto represented by SEQ ID NO:8 were synthesized according to the same method as in Example 3. The thermal stability of these duplex nucleic acids obtained was examined according to the same method as in Example 3.
as §2, with “In addition, a duplex” for “A duplex”, “between T-1 (control)” for “between TN-1”, “duplex DNA” for “duplex formed DNA/DNA”, “between T-2 (control)” for “between TN-2”, “3. Thermal” for “3. The thermal”, “3. The results were shown together in FIG. 1.” for “3.”

[2] = tested on: complementary RNA oligonucleotide (SEQ ID NO:9 or SEQ ID NO:10); assay: Thermal stability test, measurement of Tm (DNA/RNA match duplex); format: binding; conditions: for Tm of the duplex DNA/RNA compared with that of T-1 (control) and T-2 (control), in words: versus oligonucleotides of only naturally occurring nucleosides; for Tm of the duplex DNA/RNA compared with that of T-1 (control) and T-2 (control), in words / ΔTm / Tm: duplex DNA/RNA; for ΔTm: difference from the matching control (T-1 or T-2); for Tm: same method as Example 3 (3 μM, 10 mM sodium phosphate buffer, 100 mM sodium chloride, pH 7.0)
Experimental: as §1
Using commercially available rA-CE phosphoramidite, rU-CE phosphoramidite and rC-CE phosphoramidite as materials, also using 3′-dU-CPG (all of them were produced by Glen research Corp.) as a starting material, complementary oligonucleotides to each of UNF-1 and UNF-2 which were prepared in Example 2, were synthesized according to the same method as in Example 2.
Using UNF-1 and UNF-2, which were synthesized in Example 2, and the complementary oligonucleotides thereto shown in Table 2 as materials, a duplex DNA/RNA was prepared according to the conventional method (R. Kierzek et al., Biochemistry, 1986, vol. 25, pp. 7840-7846).
Using the obtained duplexes DNA/RNA, thermal stability test was carried out according to the same method as in Example 3.
A duplex DNA/RNA formed between TN-1 synthesized in Comparative Example 2 and a complementary oligonucleotide thereto represented by SEQ ID NO:9, and a duplex DNA/RNA formed between TN-2 synthesized in Comparative Example 2 and a complementary oligonucleotide thereto represented by SEQ ID NO:10 were synthesized according to the same method as in Example 4. Thermal stabilities of these duplex nucleic acids obtained were examined according to the same method as in Example 4.
In addition, a duplex DNA/RNA formed between T-1 (control) synthesized in Comparative Example 2 and a complementary oligonucleotide thereto represented by SEQ ID NO:9, and a duplex DNA formed between T-2 (control) synthesized in Comparative Example 2 and a complementary oligonucleotide thereto represented by SEQ ID NO:10 were synthesized according to the same method as in […]. Thermal stabilities of these duplex nucleic acids obtained were examined according to the same method as in Example 4.

## UNF-2: SEQ ID NO:2, 5′-(AAG GAA U^NFU^NFG AGG AAA GA)-3′; U^NF = introduced 5′-amino-2′-fluoro-2′,5′-dideoxyuridine (AAGGAAUUGAGGAAAGA; sugars from the 5' end d6 [5NF]2 d9, backbone not given here)
[1]; duplex DNA/DNA (Table 3), two UNFs versus one UNF
  Tm compared with that of UNF-1, in words: higher
[1]
  Tm of the duplex DNA/DNA compared with that of T-1 (control) and T-2 (control), in words: equivalent
  Tm: 52.1 °C
  ΔTm: −1.4
[2]; duplex DNA/RNA (Table 5), two UNFs versus one UNF
  Tm compared with that of UNF-1, in words: higher
[2]
  Tm of the duplex DNA/RNA compared with that of T-1 (control) and T-2 (control), in words: equivalent
  ΔTm: −0.5
  Tm: 43.5 °C

## TN-1: SEQ ID NO:3, 5′-(AAG GAA AT^NG AGG AAA GA)-3′; T^N = introduced 5′-aminothymidine (comparative) (AAGGAAANGAGGAAAGA; 5'-aminothymidine, chemistry not fully specified)
[1]
  Tm of the duplex DNA/DNA compared with that of T-1 (control) and T-2 (control), in words: lower
  Tm: 50.6 °C
  ΔTm: −2.3
[2]
  Tm of the duplex DNA/RNA compared with that of T-1 (control) and T-2 (control), in words: lower
  ΔTm: −4.4
  Tm: 37.7 °C

## T-2 (control): SEQ ID NO:6, 5′-d(AAG GAA TTG AGG AAA GA)-3′; oligonucleotide comprising only naturally occurring nucleosides (AAGGAATTGAGGAAAGA; unmodified DNA)
[1]
  Tm: 53.5 °C
[2]
  Tm: 44 °C

## UNF-1: SEQ ID NO:1, 5′-(AAG GAA AU^NFG AGG AAA GA)-3′; U^NF = introduced 5′-amino-2′-fluoro-2′,5′-dideoxyuridine (AAGGAAAUGAGGAAAGA; sugars from the 5' end d7 [5NF]1 d9, backbone not given here)
[1]
  Tm of the duplex DNA/DNA compared with that of T-1 (control) and T-2 (control), in words: equivalent
  Tm: 51.8 °C
  ΔTm: −1.1
[2]
  Tm of the duplex DNA/RNA compared with that of T-1 (control) and T-2 (control), in words: equivalent
  ΔTm: −0.2
  Tm: 41.9 °C

## TN-2: SEQ ID NO:4, 5′-(AAG GAA T^NT^NG AGG AAA GA)-3′; T^N = introduced 5′-aminothymidine (comparative) (AAGGAANNGAGGAAAGA; 5'-aminothymidines, chemistry not fully specified)
[1]
  Tm of the duplex DNA/DNA compared with that of T-1 (control) and T-2 (control), in words: lower
  Tm: 48.3 °C
  ΔTm: −5.2
[2]
  Tm of the duplex DNA/RNA compared with that of T-1 (control) and T-2 (control), in words: lower
  ΔTm: −5.0
  Tm: 39 °C

## T-1 (control): SEQ ID NO:5, 5′-d(AAG GAA ATG AGG AAA GA)-3′; oligonucleotide comprising only naturally occurring nucleosides (AAGGAAATGAGGAAAGA; unmodified DNA)
[1]
  Tm: 52.9 °C
[2]
  Tm: 42.1 °C
